These results are taken from patent US4985558A, “1,4-dihydropyridine derivative” (Nikken Chemicals Co., Ltd., priority 1988, dated 1991).

Data set [1] has as its system vincristine (VCR)-resistant mouse leukemia (P388/VCR) cells. Description: Antitumor agent potentiating effect in vincristine-resistant tumor bearing mouse (Example 11, i.p. 5 days). The data set is classed as in vivo. The procedure: (§1) The potentiating effect of the antitumor agent (T/V) % was determined according to the formula shown below. Verapamil was employed as the positive Control compound. […] In the Tables, Compound 1 is the compound obtained in Example 1, Compound 2 that obtained in Example 2, Compound 3 that obtained in Example 3, Compound 4 that obtained in Example 4, and Compound 5 that obtained in Example 5. [formula]

For data set [2] the test system is unchanged. Nature of the data set: Antitumor agent potentiating effect in vincristine-resistant tumor bearing mouse (Example 12, i.p.). The data set is classed as in vivo. The procedure: as §1
The potentiating effect of the antitumor agent (T/V) % was determined as described above (Example 11). Nicardipine was employed as the positive Control compound, and was administered intraperitoneally for 10 days. […] In the Tables, Compound 6 is the compound obtained in Example 6, Compound 7 that obtained in Example 7, and Compound 8 that obtained in Example 8.

The test system is the same in data set [3]. Description: Antitumor agent potentiating effect in vincristine-resistant tumor bearing mouse (Example 13, oral compound, 10 days). The data set is classed as in vivo.
The test system of data set [4] is antitumor drug sensitive cells P388/S of mouse P388 leukemia cells. Nature of the data set: VCR alone in mice bearing drug sensitive P388/S leukemia (Example 13, Table 8(B)). The data set is classed as in vivo. The procedure: The compounds of this invention were administered orally after the treatment described above, and VCR was administered as described above. The progress thereof was observed and the survival days for respective animals were determined to obtain the survival ratio (T/C) % relative to the Control. The antitumor agent potentiating effect (T/V) % was determined as described above. In the Table, Compound 8 is the compound obtained in Example 8.

A further data set relates to rat rectum smooth muscle. Description: Inhibitory effects on potassium contracture in rat rectum smooth muscle. The data set is classed as cell-based. To be noted: 5 min, K contraction 5.6 to 56.0 mM, read-out: Inhibition ratio; for inhibition at 0.1 µM: 10^-7 M; for inhibition at 0.01 µM: 10^-8 M. Here is the method:
Rat rectum (about 1.5 cm) was isolated and suspended in a Magnus tube. A Locke solution was employed as the nutrient solution, and a contraction of the intestinum rectum was caused by changing the potassium (K) concentration of this solution from 5.6 mmol (mM) to 56.0 mM. This contraction was a contraction through a membrane dependent Ca-channel mediated contraction based on depolarization by a K concentration change. The contraction was recorded by an FD-transducer and polygraph. The compounds of the present invention were permitted to act 5 minutes before changing the K concentration, and simultaneously with changing the K concentration. […] A judgement was made 5 minutes after changing the K concentration, and the difference in contraction before the concentration change was indicated as an inhibition % value. Verapamil and nicardipine were employed as the positive control compound .

A further data set deals with ICR mice. Nature of the data set: acute toxicity test.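 Note: intraperitoneal dosing with deaths counted over 10 days of observation.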 The settings on record: mouse, in vivo. The procedure:
Male 6-week-old ICR mice were divided into groups of 2 to 5 mice per group. […] The drugs to be tested were administered in varying amounts of 250 to 2000 mg/kg to 5 or 7 groups (a geometrical series of .cent.2), at a dose volume of 10 ml/kg. In the Table, the respective compounds have the same meanings as described above.

Data set [5] concerns spontaneously hypertensive rats (SHR). The settings on record: rat, in vivo, ip.
Experimental: The systolic blood pressure was measured by using spontaneously hypertensive rats (SHR), which are a model of hypertension when examine the hypotensive activities of the compounds of the present invention and the positive Control compound. The rats were warmed for 5 minutes in a warming box at 55° C., and their blood pressure then measured by a tail cuff plethysmograph. The compounds of the present invention were administered singly and intraperitoneally at a dose of 100 mg/kg and the positive Control compound was administered singly and intraperitoneally at a dose of 10 mg/kg. […] Blood pressure measurements were taken before administration and 60 minutes after administration. Nicardipine was employed as the positive Control compound.
Where [6] appears, read: VCR 30 μg/kg i.p. alone (reference = 100).
Setting [7] is: compound 100 mg/kg i.p. + VCR 30 μg/kg i.p.
Setting [8] is: positive control 30 mg/kg + VCR 30 μg/kg.
The mark [9] stands for this setting: positive control 60 mg/kg + VCR 30 μg/kg.
[10] abbreviates: compound alone 100 mg/kg i.p., no VCR.
Setting [11] is: positive control 50 mg/kg i.p., 10 days + VCR 30 μg/kg.
[12] abbreviates: positive control 75 mg/kg i.p., 10 days + VCR 30 μg/kg.
[13] abbreviates: positive control alone 50 mg/kg i.p., 10 days.
Where [14] appears, read: positive control alone 75 mg/kg i.p., 10 days.
Where [15] appears, read: compound 50 mg/kg/day oral + VCR 100 μg/kg/day i.p.
Where [16] appears, read: compound 100 mg/kg/day oral + VCR 10 μg/kg/day i.p.
[17] abbreviates: compound 100 mg/kg/day oral + VCR 30 μg/kg/day i.p.
Where [18] appears, read: compound 100 mg/kg/day oral + VCR 100 μg/kg/day i.p.
The mark [19] stands for this setting: compound 200 mg/kg/day oral + VCR 10 μg/kg/day i.p.
Setting [20] is: compound 200 mg/kg/day oral + VCR 30 μg/kg/day i.p.
[21] abbreviates: compound 200 mg/kg/day oral + VCR 100 μg/kg/day i.p.
[22] abbreviates: compound 300 mg/kg/day oral + VCR 10 μg/kg/day i.p.
Setting [23] is: compound 300 mg/kg/day oral + VCR 30 μg/kg/day i.p.

Where “and” joins values, the source holds several entries; their conditions need not be identical. Identical values can stand only once. Like-named read-outs stand apart in the source and are kept apart here.

Turning to `CC[C@]1(O)C[C@H]2CN(CCc3c([nH]c4ccccc34)[C@@](C(=O)OC)(c3cc4c(cc3OC)N(C=O)[C@H]3[C@@](O)(C(=O)OC)[C@H](OC(C)=O)[C@]5(CC)C=CCN6CC[C@]43[C@@H]65)C2)C1` [VCR, vincristine, reference compound], the “Survival Days (Mean ± SD)” value in data set [1] (VCR 30 μg/kg i.p. alone) is 12.5 ± 1.4 days and 10.5 ± 0.8 days and 11.3 ± 1.0 days and 11.8 ± 1.3 days; in data set [2] (VCR 30 μg/kg i.p. alone) it was 11.4 ± 1.0 days and 9.8 ± 0.8 days and 11.0 ± 1.8 days; in data set [3] (VCR 10 μg/kg/day i.p. alone), 9.4 ± 0.7 days; in data set [3] (VCR 30 μg/kg/day i.p. alone), 10.3 ± 1.5 days; in data set [3] (VCR 100 μg/kg/day i.p. alone), 10.4 ± 0.9 days; in data set [4] (VCR 10 μg/kg/day alone), 11.8 ± 0.8 days. For the same compound, the “Survival Days (Mean ± SD)” value worked out at 13.3 ± 0.9 days in data set [4] (VCR 30 μg/kg/day alone) and 15.2 ± 0.8 days in data set [4] (VCR 100 μg/kg/day alone). For the same compound, the “Survival ratio T/C” value in data set [1] (VCR 30 μg/kg i.p. alone) came out at 104%; in data set [2] (VCR 30 μg/kg i.p. alone), 100%; in data set [3] (VCR 10 μg/kg/day i.p. alone), 99%; in data set [4] (VCR 10 μg/kg/day alone) it was 144%; in data set [4] (VCR 30 μg/kg/day alone) it was 162%; in data set [4] (VCR 100 μg/kg/day alone) it was 185%. For the same compound, the “Potentiating effect T/V” value in data set [1] (setting [6]), in data set [2] (setting [6]), in data set [3] (VCR 10 μg/kg/day i.p. alone (reference = 100)), in data set [3] (VCR 30 μg/kg/day i.p. alone (reference = 100)) and in data set [3] (VCR 100 μg/kg/day i.p. alone (reference = 100)) was 100% in each case.
As for `CC1=C(C(=O)OCCc2ccccn2)C(C2=COCCO2)C(C(=O)OCCc2ccccn2)=C(C)N1` [Compound 4, bis[2-(2-pyridyl)ethyl]4-[2-(5,6-dihydro-p-dioxinyl)]-2,6-dimethyl-1,4-dihydropyridine-3,5-dicarboxylate], in data set [1] (setting [7]), the “Potentiating effect T/V” value was determined as 121%, the “Survival Days (Mean ± SD)” value worked out at 13.7 ± 1.6 days and the “Survival ratio T/C” value is given as 126%. In addition, in the data set with rat rectum smooth muscle, the inhibition at 0.1 µM is 5.2% and the inhibition at 0.01 µM was -6.9%.
Consider `CCc1ccc(COC(=O)C2=C(C)NC(C)=C(C(=O)OCc3ccc(CC)cn3)C2C2=COCCO2)nc1` [Compound 5, bis[2-(5-ethylpyridyl)methyl]4-[2-(5,6-dihydro-p-dioxinyl)-]2,6-dimethyl-1,4-dihydropyridine-3,5-dicarboxylate], for which, in data set [1] (setting [7]), the “Potentiating effect T/V” value was determined as 131%, the “Survival Days (Mean ± SD)” value was 14.8 ± 1.2 days and the “Survival ratio T/C” value was 136%. Also, the Mortality with ICR mice was 0/2 and 0/3. In data set [5] (100 mg/kg), the Blood pressure change is listed as -34 mmHg and the “Systolic Blood Pressure 60 minutes after administration” value (“Systolic Blood Pressure 60 minutes” for short) stood at 187 mmHg.
In the case of `COc1ccc(CCN(C)CCCC(C#N)(c2ccc(OC)c(OC)c2)C(C)C)cc1OC` (stereo not drawn) [Verapamil, reference compound], in data set [1] (setting [8]), the “Potentiating effect T/V” value worked out at 121%, the “Survival Days (Mean ± SD)” value is 14.3 ± 1.6 days and the “Survival ratio T/C” value came out at 134%. Moreover, in data set [1] (setting [9]), the “Potentiating effect T/V” value was determined as 130%, the “Survival Days (Mean ± SD)” value was 15.3 ± 0.5 days and the “Survival ratio T/C” value is recorded as 143%. In addition, in the data set with rat rectum smooth muscle, the inhibition at 0.1 µM amounted to 50.2% and the inhibition at 0.01 µM came to 13.6%.
Consider `CC1=C(C(=O)OCc2cccnc2)C(C2=CSCCS2)C(C(=O)OCc2cccnc2)=C(C)N1` [Compound 7, bis(3-pyridylmethyl) 4-[2-(5,6-dihydro-1,4-dithiinyl)]-2,6-dimethyl-1,4-dihydropyridine-3,5-dicarboxylate], for which, in data set [2] (setting [7]), the “Potentiating effect T/V” value worked out at 118%, the “Survival Days (Mean ± SD)” value stood at 13.5 ± 0.8 days and the “Survival ratio T/C” value is 131%. In data set [2] (setting [10]), the “Survival Days (Mean ± SD)” value is listed as 11.0 ± 0.6 days and the “Survival ratio T/C” value came out at 107%. In data set [5] (100 mg/kg), the Blood pressure change is recorded as -38 mmHg and the “Systolic Blood Pressure 60 minutes” value is listed as 189 mmHg.
As for `COC(=O)C1=C(C)NC(C)=C(C(=O)OCCN(C)Cc2ccccc2)C1c1cccc([N+](=O)[O-])c1` (stereo not drawn) [Nicardipine, reference compound], in data set [2] (setting [11]), the “Potentiating effect T/V” value is given as 112%, the “Survival Days (Mean ± SD)” value is reported as 12.3 ± 0.8 days and the “Survival ratio T/C” value was 128%. In addition, in data set [2] (setting [12]), the “Potentiating effect T/V” value was found to be 125%, the “Survival Days (Mean ± SD)” value was found to be 13.7 ± 1.2 days and the “Survival ratio T/C” value is reported as 143%. For the same compound, in data set [2] (setting [13]), the “Survival Days (Mean ± SD)” value was found to be 10.6 ± 1.5 days and the “Survival ratio T/C” value was determined as 110%. In data set [2] (setting [14]), the “Survival Days (Mean ± SD)” value is listed as 11.2 ± 1.1 days and the “Survival ratio T/C” value amounted to 117%. For the same compound, the inhibition at 0.01 µM in the data set with rat rectum smooth muscle worked out at 73.1%. For the same compound, in data set [5] (10 mg/kg), the Blood pressure change was -122 mmHg and the “Systolic Blood Pressure 60 minutes” value is reported as 86 mmHg.
Regarding `CC1=C(C(=O)OCc2ccncc2)C(C2=C(C)SCCS2)C(C(=O)OCc2ccncc2)=C(C)N1` [Compound 8, bis(4-pyridylmethyl) 4-[2-(3-methyl-5,6-dihydro-1,4-dithiinyl)-]2,6-dimethyl-1,-4-dihydropyridine-3,5-dicarboxylate], the “Potentiating effect T/V” value in data set [2] (setting [7]) was 138%; in data set [3] (setting [15]), 120%; in data set [3] (setting [16]) it was 120%; in data set [3] (setting [17]) it was 118%; in data set [3] (setting [18]), 130%; in data set [3] (setting [19]) it was 131%. Further, the “Potentiating effect T/V” value in data set [3] (setting [20]) is given as 139%; in data set [3] (setting [21]) it was 156%; in data set [3] (setting [22]), 144%; in data set [3] (setting [23]) it was 149%. The “Survival Days (Mean ± SD)” value in data set [2] (setting [7]) amounted to 13.5 ± 0.8 days; in data set [2] (setting [10]), 9.7 ± 1.0 days; in data set [3] (setting [15]), 12.5 ± 1.6 days; in data set [3] (setting [16]), 11.3 ± 0.8 days; in data set [3] (setting [17]) it was 12.2 ± 1.2 days; in data set [3] (setting [18]), 13.5 ± 1.4 days. Besides, the “Survival Days (Mean ± SD)” value in data set [3] (setting [19]) was 12.3 ± 0.5 days; in data set [3] (setting [20]), 14.3 ± 1.0 days; in data set [3] (setting [21]), 16.2 ± 2.4 days; in data set [3] (setting [22]), 13.5 ± 0.5 days; in data set [3] (setting [23]), 15.3 ± 1.5 days. Besides, the “Survival ratio T/C” value in data set [2] (setting [7]) is on record as 138%; in data set [2] (setting [10]), 99%; in data set [3] (setting [15]) it was 132%; in data set [3] (setting [16]) it was 119%; in data set [3] (setting [17]), 128%; in data set [3] (setting [18]), 142%. Besides, the “Survival ratio T/C” value in data set [3] (setting [19]) was determined as 129%; in data set [3] (setting [20]) it was 151%; in data set [3] (setting [21]) it was 171%; in data set [3] (setting [22]), 142%; in data set [3] (setting [23]) it was 161%. Further, the “life prolonging effect compared with VCR alone in P388/S” value in data set [3] (combination with VCR, P388/VCR, Table 8) is “has an effect comparable to the prolonging effect when VCR is administered alone to P388/S which is a vincristine-sensitive clone (Table 8), thus completely overcoming the VCR resistance”. Further, in data set [5] (100 mg/kg), the Blood pressure change is -11 mmHg. Besides, the “Systolic Blood Pressure 60 minutes” value in data set [5] (100 mg/kg) is 187 mmHg.
